Reference: patent publication US20250263391A1, “CRYSTALLINE FORM OF TEGAVIVINT, METHOD OF PREPARATION, AND USE THEREOF” (Iterion Therapeutics, Inc., priority 2020, published 2025)
Entries after “also recorded” stand apart in the source; their conditions may differ.

Experiments:
Assay type in all cases: physicochemical
[1] = Ball milling of Form I and Form IV: form stability by XRPD; conditions: for Form: ball milling in 1% Poloxamer 188 water solution (50 mg/mL)
Method: (§1) Therefore, ball milling of Form I and Form IV was performed to evaluate the form stability and particle size growth. The detailed procedure of ball milling was as follows. • 1. Suspend Form I and Form IV sample in 1% Poloxamer 188 water solution (50 mg/mL), separately. • 2. Add ˜12 mL suspension into a 50-mL tube which contained milling beads (the volume of milling beads is around 30 mL). After 12 mL suspension was added, the liquid surface just covered the beads. • 3. Roll the 50-mL tube (containing beads and suspension) at 5° C., RT and 60° C. with 30 rpm. • 4. Sample ˜0.8 mL suspension at 1, 2, 4, 24 h using 1-mL syringe. • 5. Test XRPD, PSD and PLM for the suspension.
For XRPD analysis, PANalytical X'Pert^3 X-ray powder diffractometer was used.

[2] = Ball milling of Form I and Form IV: particle size (PSD)
Method: as §1

[3] = Slurry competition of Form I, III, IV and V at high water activity at RT (XRPD of wet cake); conditions: mixture of Form I
Method: The detailed procedure was as follows: • 1) Prepare saturated solution with Form I sample (803759-01-A) in three solvent systems. • 2) Add about 10 mg of each form into 1 mL corresponding saturated solution. • 3) Slurry and check the XRPD of the wet cake after one day and six days.

[4] = Storage of milled Form I aqueous suspension; conditions: milled to a very small particle size
Method: as §1

[5] = Dynamic Vapor Sorption (DVS); conditions: 25° C./80% RH
Method: DVS was measured via a SMS (Surface Measurement Systems) DVS Intrinsic. The relative humidity at 25° C. were calibrated against deliquescence point of LiCl, Mg(NO3)2 and KCl.

[6] = Ball milling of Form I and Form IV: aggregation (PLM); conditions: after 24 h
Method: as §1
PLM images were captured using Axio Scope A1 microscope from Carl Zeiss German.

[7] = VT-XRPD of Form IV and exposure to ambient conditions
Method: 2) After heating to 75 and 120° C., pure Form VI was observed. […] Thus, Form IV is believed to be a hydrate. For XRPD analysis, PANalytical X'Pert^3 X-ray powder diffractometer was used.

[8] = Form III samples after drying (XRPD)

Q: Which results are given for `CC1CC(C)CN(S(=O)(=O)c2ccc3c(c2)C(=NO)c2cc(S(=O)(=O)N4CC(C)CC(C)C4)ccc2C3=NO)C1` (stereo not shown) [Form I, (9E,10E)-2,7-bis((3,5-dimethylpiperidin-1-yl)sulfonyl)anthracene-9,10-dione dioxime]?
A: Form ([1]; 5° C., 1 h, listed as Form 1): Form I; Form ([1]; 5° C., 2 h, listed as Form 1): Form I; Form ([1]; 5° C., 4 h, listed as Form 1): Form I; Form ([1]; 5° C., 24 h, listed as Form 1): Form I; Form ([1]; 60° C., 1 h, listed as Form 1): Form I; Form ([1]; 60° C., 2 h, listed as Form 1): Form I; Form ([1]; 60° C., 4 h): Form I; Form ([1]; 60° C., 24 h): Form I; Form ([1]; RT, 1 h, listed as Form 1): Form I; Form ([1]; RT, 2 h, listed as Form 1): Form I; Form ([1]; RT, 4 h, listed as Form 1): Form I; Form ([1]; RT, 24 h, listed as Form 1): Form I; D 90 ([2]; 5° C., 1 h, listed as Form 1): 9.4 μm; D 90 ([2]; 5° C., 2 h, listed as Form 1): 9.0 μm; D 90 ([2]; 5° C., 4 h, listed as Form 1): 5.2 μm; D 90 ([2]; 5° C., 24 h, listed as Form 1): 5.6 μm; D 90 ([2]; 60° C., 1 h, listed as Form 1): 22.6 μm; D 90 ([2]; 60° C., 2 h, listed as Form 1): 6.6 μm; D 90 ([2]; 60° C., 4 h, listed as Form 1): 5.3 μm; D 90 ([2]; 60° C., 24 h, listed as Form 1): 2.0 μm; D 90 ([2]; RT, 1 h, listed as Form 1): 22.4 μm; D 90 ([2]; RT, 2 h, listed as Form 1): 21.4 μm; D 90 ([2]; RT, 4 h, listed as Form 1): 14.2 μm; D 90 ([2]; RT, 24 h, listed as Form 1): 2.8 μm; Form obtained from slurry competition ([3]; IV and V slurried in ACN/H2O (1:1, v/v) at RT): New form; Form obtained from slurry competition ([3]; IV and V slurried in ACN/H2O (1:3, v/v) at RT): Form I; Form obtained from slurry competition ([3]; IV and V slurried in H2O at RT, XRPD after one day and six days): Form IV; Form conversion during storage [4]: started converting to Form IV; Particle size growth during storage [4]: unacceptable particle size growth

Q: For `CC1CC(C)CN(S(=O)(=O)c2ccc3c(c2)C(=NO)c2cc(S(=O)(=O)N4CC(C)CC(C)C4)ccc2C3=NO)C1` (stereo not shown) [Form IV, (9E,10E)-2,7-bis((3,5-dimethylpiperidin-1-yl)sulfonyl)anthracene-9,10-dione dioxime], which water uptake [5] is on record?
A: 9.1%

Q: What about the Aggregation ([6]; 5° C.) of the same compound?
A: Aggregation was observed

Q: And the Aggregation ([6]; RT)?
A: Aggregation was observed

Q: And the Form ([1]; 5° C., 1 h)?
A: Form IV

Q: And the Form ([1]; 5° C., 2 h)?
A: Form IV

Q: And the Form ([1]; 5° C., 4 h)?
A: Form IV

Q: What about the Form ([1]; 5° C., 24 h) of the same compound?
A: Form IV

Q: What about the Form ([1]; 60° C., 1 h) of the same compound?
A: Form IV

Q: And the Form ([1]; 60° C., 2 h)?
A: form conversion was observed; also recorded: Form I + IV

Q: And the Form ([1]; RT, 1 h)?
A: Form IV

Q: And the Form ([1]; RT, 2 h)?
A: Form IV

Q: What about the Form ([1]; RT, 4 h) of the same compound?
A: Form IV

Q: What about the Form ([1]; RT, 24 h) of the same compound?
A: form conversion was observed; also recorded: Amorphous

Q: What about the “Form conversion on ball milling” value ([1]; milled at elevated temperature (60° C.), time not stated) of the same compound?
A: conversion to Form I; also recorded: converted to Form I

Q: And the “Form by VT-XRPD” value ([7]; after cooling to 30° C.)?
A: Form VI was still observed

Q: What about the “Form by VT-XRPD” value ([7]; after heating to 75 and 120° C.) of the same compound?
A: pure Form VI

Q: And the “Form by VT-XRPD” value ([7]; at 30° C. under N2)?
A: partially converted to a new form

Q: What about the “D 90” value ([2]; 5° C., 1 h) of the same compound?
A: 33.7 μm

Q: What about the “D 90” value ([2]; 5° C., 2 h) of the same compound?
A: 17.4 μm

Q: What about the “D 90” value ([2]; 5° C., 4 h) of the same compound?
A: 5.8 μm

Q: And the “D 90” value ([2]; 5° C., 24 h)?
A: 9.8 μm

Q: And the “D 90” value ([2]; 60° C., 1 h)?
A: 3.9 μm

Q: What about the “D 90” value ([2]; 60° C., 2 h) of the same compound?
A: 4.0 μm

Q: What about the “D 90” value ([2]; 60° C., 4 h) of the same compound?
A: 2.0 μm

Q: And the “D 90” value ([2]; 60° C., 24 h)?
A: 0.6 μm

Q: What about the “D 90” value ([2]; RT, 1 h) of the same compound?
A: 6.6 μm

Q: And the “D 90” value ([2]; RT, 2 h)?
A: 4.0 μm

Q: What about the “D 90” value ([2]; RT, 4 h) of the same compound?
A: 3.4 μm

Q: And the “D 90” value ([2]; RT, 24 h)?
A: 5.8 μm

Q: With `CC1CC(C)CN(S(=O)(=O)c2ccc3c(c2)C(=NO)c2cc(S(=O)(=O)N4CC(C)CC(C)C4)ccc2C3=NO)C1` (stereo not shown) [Form VI, (9E,10E)-2,7-bis((3,5-dimethylpiperidin-1-yl)sulfonyl)anthracene-9,10-dione dioxime] as the compound, how does the Form conversion ([7]; after exposure to ambient condition) read?
A: converted to Form IV quickly

Q: For `CC1CC(C)CN(S(=O)(=O)c2ccc3c(c2)C(=NO)c2cc(S(=O)(=O)N4CC(C)CC(C)C4)ccc2C3=NO)C1` (stereo not shown) [Form III, (9E,10E)-2,7-bis((3,5-dimethylpiperidin-1-yl)sulfonyl)anthracene-9,10-dione dioxime], which Form conversion ([8]; after exposure to ambient condition at RT) is on record?
A: Form V

Q: And the Form conversion ([8]; after vacuum drying at RT)?
A: converted to Form IV
